For orientation: IC50 means the concentration at which inhibition is half-maximal. A higher IC50 goes with lower potency.

The test system of this assay is GBM8 human glioblastoma cells. Nature of the assay: GBM8 viability assay (Cell Titer Glo). The following applies: 72 h, Table 1, 3 days incubation, luminescence. The format is cell-based. The method, then:
Cell culture medium was prepared from a NSA proliferation kit (Neurocult) and NeuroCult supplements (Stemcell Tech Cat. #05751) and treated with 20 μL of 10 μg/mL rh EGF, 10 μL of 10 μg/mL rh bFGF and 10 μL of 0.2% Heparin. In this medium, human glioblastoma cells were cultured in ultra-low attachment tissue culture flasks until 1×10^6 cells ml was achieved (GBM4 and GBM8 are distinct neurosphere cell cultures derived from these human patient tissues). GBM4 and GBM8 cells were dissociated and 10 mL of media containing 4000 human glioblastoma cells per 90 μL were transferred to an ultra-low binding 96-well plate and incubated at 37° C. overnight. On the following day, 10 μL of a 1% DMSO solution of test compound in assay medium was added to wells containing the cell suspension and the mixture incubated at 37° C. for 3 days. At this time, the plate was removed from the incubator and allowed to reach room temperature. After about 30 minutes, 50 μL of Cell Titer Glo solution was added to each well and the plate shaken for 1 minute at low speed. After 10 minutes luminescence was recorded using a Tecan Safire2 reader.
Reduction in luminescence compared to DMSO only control wells was used to determine the percentage inhibition of cell growth. IC50s were calculated using the % inhibition of luminescence for serial dilutions of compounds fitted to a 4-parameter fit within the Prism (San Diego) curve fitting program. Tables 1 (compounds 3-188) and 2 (compounds 190-212) show the GBM4 IC50 and GBM8 IC50 for compounds described herein.

Bounds are passed on as bounds.

Consider `Cc1cc(NCCN)nc(NC(=O)Nc2ccc3ccccc3c2)n1` [Compound 5, 1-(4-((2-aminoethyl)amino)-6-methylpyrimidin-2-yl)-3-(naphthalen-2-yl)urea], for which the IC50 was less than 500 nM.

The compound `Cc1cc(NCCN(C)C)nc(NC(=O)Nc2ccc3ccccc3c2)n1` [Compound 6] registered a half-maximal inhibitory concentration (IC50) of less than 500 nM.

With `Cc1cc(NCCO)nc(NC(=O)Nc2ccc3ccccc3c2)n1` [Compound 8], the half-inhibitory concentration (IC50) was less than 500 nM.

The compound `CNCCCN(C)c1cc(C)nc(NC(=O)Nc2ccc3ccccc3c2)n1` [Compound 9] had an IC50 of 500 to 5000 nM.

`Cc1cc(NCCCCN)nc(NC(=O)Nc2ccc3ccccc3c2)n1` [Compound 10]: the IC50 was less than 500 nM.

The compound `Cc1cc(NCC2CCCN(C)C2)nc(NC(=O)Nc2ccc3ccccc3c2)n1` (stereo not drawn) [Compound 11] displayed an IC50 of 500 to 5000 nM.

Turning to `CCCNc1cc(C)nc(NC(=O)Nc2ccc3ccccc3c2)n1` [Compound 12], the IC50 is less than 500 nM.

For `Cc1cc(NCCOCCO)nc(NC(=O)Nc2ccc3ccccc3c2)n1` [Compound 13], the IC50 was less than 500 nM.

Consider `Cc1cc(NCC(C)O)nc(NC(=O)Nc2ccc3ccccc3c2)n1` (stereo not drawn) [Compound 14], for which the IC50 is less than 500 nM.

`Cc1cc(NCCc2ccccn2)nc(NC(=O)Nc2ccc3ccccc3c2)n1` [Compound 15] returned a 50% inhibitory concentration (IC50) of 5000 to 30000 nM.

The compound `Cc1cc(NCCCc2ccccn2)nc(NC(=O)Nc2ccc3ccccc3c2)n1` [Compound 16] returned an IC50 of less than 500 nM.

As for `Cc1cc(NCCCCN(C)C)nc(NC(=O)Nc2ccc3ccccc3c2)n1` [Compound 17], the IC50 was less than 500 nM.

`Cc1cc(NCC(O)CO)nc(NC(=O)Nc2ccc3ccccc3c2)n1` (stereo not drawn) [Compound 18] displayed an IC50 of less than 500 nM.

Consider `CNc1cc(C)nc(NC(=O)Nc2ccc3ccccc3c2)n1` [Compound 20], for which the 50% inhibitory concentration (IC50) was less than 500 nM.

Regarding `Cc1cc(N(C)C)nc(NC(=O)Nc2ccc3ccccc3c2)n1` [Compound 21], the IC50 was 500 to 5000 nM.

`Cc1cc(NCCc2ncc[nH]2)nc(NC(=O)Nc2ccc3ccccc3c2)n1` [Compound 22, 1-(4-((2-(1H-imidazol-2-yl)ethyl)amino)-6-methylpyrimidin-2-yl)-3-(naphthalen-2-yl)urea]: the IC50 is less than 500 nM.

Compound `Cc1cc(NCCCc2ncc[nH]2)nc(NC(=O)Nc2ccc3ccccc3c2)n1` [Compound 23, 1-(4-((3-(1H-imidazol-2-yl)propyl)amino)-6-methylpyrimidin-2-yl)-3-(naphthalen-2-yl)urea] yielded an IC50 of less than 500 nM.

Compound `Cc1cc(NCCc2ccc[nH]2)nc(NC(=O)Nc2ccc3ccccc3c2)n1` [Compound 24, 1-(4-((2-(1H-pyrrol-2-yl)ethyl)amino)-6-methylpyrimidin-2-yl)-3-(naphthalen-2-yl)urea] yielded a 50% inhibitory concentration (IC50) of less than 500 nM.

On to `COC(=O)CCNc1cc(C)nc(NC(=O)Nc2ccc3ccccc3c2)n1` [Compound 25, methyl 3-((6-methyl-2-(3-(naphthalen-2-yl)ureido)pyrimidin-4-yl)amino)propanoate], for which the 50% inhibitory concentration (IC50) is less than 500 nM.

`Cc1cc(NCCC(N)=O)nc(NC(=O)Nc2ccc3ccccc3c2)n1` [Compound 26, 3-((6-methyl-2-(3-(naphthalen-2-yl)ureido)pyrimidin-4-yl)amino)propanamide] registered an IC50 of less than 500 nM.

Compound `Cc1cc(NCC(F)(F)CO)nc(NC(=O)Nc2ccc3ccccc3c2)n1` [Compound 27, 1-(4-((2,2-difluoro-3-hydroxypropyl)amino)-6-methylpyrimidin-2-yl)-3-(naphthalen-2-yl)urea] showed an IC50 of less than 500 nM.

Turning to `Cc1cc(NCCOCCN(C)C)nc(NC(=O)Nc2ccc3ccccc3c2)n1` [Compound 28, 1-(4-((2-(2-(dimethylamino)ethoxy)ethyl)amino)-6-methylpyrimidin-2-yl)-3-(naphthalen-2-yl)urea], the 50% inhibitory concentration (IC50) was less than 500 nM.

In turn, `CNCCNc1cc(C)nc(NC(=O)Nc2ccc3ccccc3c2)n1` [Compound 30, 1-(4-methyl-6-((2-(methylamino)ethyl)amino)pyrimidin-2-yl)-3-(naphthalen-2-yl)urea] showed an IC50 of less than 500 nM.

Regarding `CNCCCNc1cc(C)nc(NC(=O)Nc2ccc3ccccc3c2)n1` [Compound 31, 1-(4-methyl-6-((3-(methylamino)propyl)amino)pyrimidin-2-yl)-3-(naphthalen-2-yl)urea], the 50% inhibitory concentration (IC50) is less than 500 nM.

In the case of `Cc1cc(NCC2CCCNC2)nc(NC(=O)Nc2ccc3ccccc3c2)n1` (stereo not drawn) [Compound 32, 1-(4-methyl-6-((piperidin-3-ylmethyl)amino)pyrimidin-2-yl)-3-(naphthalen-2-yl)urea], the IC50 is less than 500 nM.

In the case of `CNCCCCNc1cc(C)nc(NC(=O)Nc2ccc3ccccc3c2)n1` [Compound 33, 1-(4-methyl-6-((4-(methylamino)butyl)amino)pyrimidin-2-yl)-3-(naphthalen-2-yl)urea], the IC50 was less than 500 nM.

On to `CC(=O)NCCCNc1cc(C)nc(NC(=O)Nc2ccc3ccccc3c2)n1` [Compound 34, N-(3-((6-methyl-2-(3-(naphthalen-2-yl)ureido)pyrimidin-4-yl)amino)propyl)acetamide], for which the IC50 was less than 500 nM.

For the compound `Cc1cc(NCCCNS(C)(=O)=O)nc(NC(=O)Nc2ccc3ccccc3c2)n1` [Compound 37, N-(3-((6-methyl-2-(3-(naphthalen-2-yl)ureido)pyrimidin-4-yl)amino)propyl)methanesulfonamide], the IC50 was less than 500 nM.

On to `Cc1cc(NCCNC(=O)C(F)(F)F)nc(NC(=O)Nc2ccc3ccccc3c2)n1` [Compound 38, 2,2,2-trifluoro-N-(2-((6-methyl-2-(3-(naphthalen-2-yl)ureido)pyrimidin-4-yl)amino)ethyl)acetamide], for which the IC50 is 500 to 5000 nM.

On to `Cc1cc(NCCC(=O)N(C)C)nc(NC(=O)Nc2ccc3ccccc3c2)n1` [Compound 42, N,N-dimethyl-3-((6-methyl-2-(3-(naphthalen-2-yl)ureido)pyrimidin-4-yl)amino)propanamide], for which the IC50 lay in the range of 500 to 5000 nM.

As for `CNC(=O)CCNc1cc(C)nc(NC(=O)Nc2ccc3ccccc3c2)n1` [Compound 43, N-methyl-3-((6-methyl-2-(3-(naphthalen-2-yl)ureido)pyrimidin-4-yl)amino)propanamide], the IC50 is less than 500 nM.

`CONc1cc(C)nc(NC(=O)Nc2ccc3ccccc3c2)n1` [Compound 44, 1-(4-(methoxyamino)-6-methylpyrimidin-2-yl)-3-(naphthalen-2-yl)urea] showed a half-inhibitory concentration (IC50) of less than 500 nM.

The compound `Cc1cc(NO)nc(NC(=O)Nc2ccc3ccccc3c2)n1` [Compound 45, 1-(4-(hydroxyamino)-6-methylpyrimidin-2-yl)-3-(naphthalen-2-yl)urea] displayed an IC50 of less than 500 nM.

With `Cc1cc(N)nc(NC(=O)Nc2ccc3ccccc3c2)n1` [Compound 47, 1-(4-amino-6-methylpyrimidin-2-yl)-3-(naphthalen-2-yl)urea], the IC50 is less than 500 nM.

With `Cc1cc(NCCCN(C)C)nc(NC(=O)Nc2ccc3cnccc3c2)n1` [Compound 50, 1-(4-((3-(dimethylamino)propyl)amino)-6-methylpyrimidin-2-yl)-3-(isoquinolin-6-yl)urea], the 50% inhibitory concentration (IC50) is less than 500 nM.

`Cc1cc(NCCN(C)C)nc(NC(=O)Nc2ccc3cnccc3c2)n1` [Compound 51, 1-(4-((2-(dimethylamino)ethyl)amino)-6-methylpyrimidin-2-yl)-3-(isoquinolin-6-yl)urea] returned an IC50 of 500 to 5000 nM.

In the case of `Cc1cc(NCCN)nc(NC(=O)Nc2ccc3cnccc3c2)n1` [Compound 52, 1-(4-((2-aminoethyl)amino)-6-methylpyrimidin-2-yl)-3-(isoquinolin-6-yl)urea], the IC50 lay in the range of 500 to 5000 nM.

On to `Cc1cc(NCCCN)nc(NC(=O)Nc2ccc3cnccc3c2)n1` [Compound 53, 1-(4-((3-aminopropyl)amino)-6-methylpyrimidin-2-yl)-3-(isoquinolin-6-yl)urea], for which the IC50 fell in the range of 500 to 5000 nM.

In turn, `CCNc1cc(C)nc(NC(=O)Nc2ccc3cnccc3c2)n1` [Compound 54] gave an IC50 of less than 500 nM.

Turning to `CNc1cc(C)nc(NC(=O)Nc2ccc3cnccc3c2)n1` [Compound 55], the half-maximal inhibitory concentration (IC50) is less than 500 nM.

In the case of `CCCCNc1cc(C)nc(NC(=O)Nc2ccc3cnccc3c2)n1` [Compound 56], the IC50 was less than 500 nM.

For `COCCNc1cc(C)nc(NC(=O)Nc2ccc3cnccc3c2)n1` [Compound 57], the IC50 is less than 500 nM.

As to `CNC(=O)CNc1cc(C)nc(NC(=O)Nc2ccc3cnccc3c2)n1` [Compound 58], the IC50 was less than 500 nM.

For `Cc1cc(NCC(=O)N(C)C)nc(NC(=O)Nc2ccc3cnccc3c2)n1` [Compound 59], the IC50 lay within 500 to 5000 nM.

On to `Cc1cc(NCCO)nc(NC(=O)Nc2ccc3cnccc3c2)n1` [Compound 60, 1-(4-((2-hydroxyethyl)amino)-6-methylpyrimidin-2-yl)-3-(isoquinolin-6-yl)urea], for which the IC50 is less than 500 nM.

As for `CONc1cc(C)nc(NC(=O)Nc2ccc3cnccc3c2)n1` [Compound 61, 1-(isoquinolin-6-yl)-3-(4-(methoxyamino)-6-methylpyrimidin-2-yl)urea], the half-inhibitory concentration (IC50) is less than 500 nM.

`Cc1cc(NO)nc(NC(=O)Nc2ccc3cnccc3c2)n1` [Compound 62, 1-(4-(hydroxyamino)-6-methylpyrimidin-2-yl)-3-(isoquinolin-6-yl)urea] came in with an IC50 of less than 500 nM.

On to `CNCCCNc1cc(C)nc(NC(=O)Nc2ccc3cnccc3c2)n1` [Compound 64, 1-(isoquinolin-6-yl)-3-(4-methyl-6-((3-(methylamino)propyl)amino)pyrimidin-2-yl)urea], for which the IC50 was less than 500 nM.

(Values after patent publication US12145913B2, “Inhibition of Olig2 activity” (Curtana Pharmaceuticals, Inc., priority 2016, dated 2024).)
